Literature values in patent US20250325518A1, “USE OF A COMBINATION OF SACUBITRIL AND VALSARTAN” (Novartis AG, priority 2016, published 2025).

Key:
[1] = test system: patients 8 months to 14 years with HF due to congenital heart disease or cardiomyopathy; conditions: pediatric HF patients 8 months to 14 years; placebo-controlled
[2] = test system: adult patients with HF with reduced ejection fraction (HFrEF); conditions: LCZ696 vs enalapril

Row | Compound | composite measure of HF outcomes (worsening, improved or unchanged), primary endpoint [1] | relative risk reduction (RRR), time to first occurrence of composite endpoint of CV death or HF hospitalization ([2]; N=8442, p=0.0000002) [%] | relative risk reduction (RRR), time to CV death ([2]; p=0.00004) [%] | relative risk reduction (RRR), time to first HF hospitalization ([2]; p=0.00004) [%]
1 | COc1ccccc1OCCNCC(O)COc1cccc2[nH]c3ccccc3c12 (stereo not shown) [carvedilol] | did not meet its composite primary endpoint |  |  | 
2 | trisodium [3-((1S,3R)-1-biphenyl-4-ylmethyl-3-ethoxycarbonyl-1-butylcarbamoyl)propionate-(S)-3′-methyl-2′-(pentanoyl{2″-(tetrazol-5-ylate)biphenyl-4′-ylmethyl}amino)butyrate] hemipentahydrate [LCZ696] |  | 20 | 20 | 21
